Results taken from patent US9179694B2, “Method and composition for enhancing milk production and milk component concentrations” (PURINA ANIMAL NUTRITION LLC, priority 2003, dated 2015).
Marks after values point to notes of the source that are not given here.

Assay: Fat content of produced milk in sorbitol feeding trials
Format: in vivo, Holstein cows
Details: for Fat in Produced Milk: Pre-Partum Trial #1 (75/0/0 g/day in wk −3..−1/+1..+4/+5..+8)
Method: To determine the weight percent total fat, wet basis, in a sample, the actual weight of fat in the sample is determined in accordance with Method #974.09 (33.7.18) of Official Methods of Analysis, Association of Official Analytical Chemists (AOAC) (16th Ed., 1995). The weight percent total fat, wet basis, is then calculated by dividing the actual weight of fat in the sample by the actual weight of the sample. Each cow of each of the six different trials (Control Trial #1, Control Trial #2, Pre-Partum Trial #1, Pre-Partum Trial #2, Pre/Post Trial #1, and Pre/Post Trial #2) was milked three times daily and the weight of produced milk by each cow was recorded at each milking. The milk from each cow was sampled once per week (⅓ of the sample volume from each of the three milkings occurring on the weekly milk sampling day) and was analyzed for true protein, total fat, lactose, and total solids, as detailed in the property determination and characterization techniques presented above. Additionally, samples of blood were periodically obtained from each cow during the four trials (Control Trial 2, Pre-Partum Trial #2, Pre/Post Trial #1, and Pre/Post Trial #2) encompassed in Example Two and were analyzed for non-esterified fatty acid (NEFA) content as detailed in the property determination and characterization techniques presented above. No NEFA analysis was conducted on the cows employed in Control Trial #1 or Pre-Partum Trial #1 that are the subject of Example One. Example One includes Control Trial #1 and Pre-Partum Trial #1. Both primiparious cows and multiparious cows were included in Control Trial #1 and Pre-Partum Trial #1. Five primiparious cows and fifteen multiparious cows were included in Control Trial #1; likewise, five primiparious cows and fifteen multiparious cows were included in Pre-Partum Trial #1. All cows included in Control Trial #1 and Pre-Partum Trial #1 were Holsteins. Example Two includes Control Trial #2, Pre-Partum Trial #2, Pre/Post Trial #1, and Pre/Post Trial #2. Only multiparious, Holstein cows were included in Control Trial #2, […], Pre/Post Trial #1, and Pre/Post Trial #2. Eighteen multiparious cows were included in both Control Trial #2 and Pre-Partum Trial #2, while sixteen multiparious cows were included in Pre/Post Trial #1 and seventeen multiparious cows were included in Pre/Post Trial #2.

In the case of `OC[C@@H](O)[C@@H](O)[C@H](O)[C@@H](O)CO` [sorbitol], the “Fat in Produced Milk” value (multiparious cows, weeks +1 through +8) is reported as 3.50 wt %, the “Fat in Produced Milk” value (primiparious cows, weeks +1 through +8) is reported as 4.2 wt % and the “increase in fat concentration in the produced milk” value (Pre-Partum Trial #1 (75 g/day wk −3..−1 only) versus Control Trial #1, primiparious cows, weeks +1 through +8) is reported as 11.7%. The “Fat Content of Produced Milk” value (Pre-Partum Trial #2 (75/0/100 g/day in wk −3..−1/+1..+4/+5..+8), multiparious cows, week +1) was 4.91^a weight %, the “Fat Content of Produced Milk” value (Pre-Partum Trial #2 (75/0/100 g/day in wk −3..−1/+1..+4/+5..+8), multiparious cows, week +2) was 4.50 weight % and the “Fat Content of Produced Milk” value (Pre-Partum Trial #2 (75/0/100 g/day in wk −3..−1/+1..+4/+5..+8), multiparious cows, week +3) was 4.09 weight %. The “Fat Content of Produced Milk” value (Pre-Partum Trial #2 (75/0/100 g/day in wk −3..−1/+1..+4/+5..+8), multiparious cows, week +4) was 3.41^a weight %, the “Fat Content of Produced Milk” value (Pre-Partum Trial #2 (75/0/100 g/day in wk −3..−1/+1..+4/+5..+8), multiparious cows, week +5) was 3.35 weight % and the “Fat Content of Produced Milk” value (Pre-Partum Trial #2 (75/0/100 g/day in wk −3..−1/+1..+4/+5..+8), multiparious cows, week +6) was 3.17^a weight %. For the same compound, the “Fat Content of Produced Milk” value (Pre-Partum Trial #2 (75/0/100 g/day in wk −3..−1/+1..+4/+5..+8), multiparious cows, week +7) was 3.29 weight %, the “Fat Content of Produced Milk” value (Pre-Partum Trial #2 (75/0/100 g/day in wk −3..−1/+1..+4/+5..+8), multiparious cows, week +8) was 3.34^ab weight % and the “Fat Content of Produced Milk” value (Pre-Partum Trial #2 (75/0/100 g/day in wk −3..−1/+1..+4/+5..+8), multiparious cows, weeks +1 through +4) was 4.23^a weight %. The “Fat Content of Produced Milk” value (Pre-Partum Trial #2 (75/0/100 g/day in wk −3..−1/+1..+4/+5..+8), multiparious cows, weeks +1 through +8) was 3.75^a weight %, the “Fat Content of Produced Milk” value (Pre-Partum Trial #2 (75/0/100 g/day in wk −3..−1/+1..+4/+5..+8), multiparious cows, weeks +5 through +8) was 3.27^ab weight % and the “Fat Content of Produced Milk” value (Pre/Post Trial #1 (150/125/100 g/day in wk −3..−1/+1..+4/+5..+8), multiparious cows, week +1) was 5.49^ab weight %. The “Fat Content of Produced Milk” value (Pre/Post Trial #1 (150/125/100 g/day in wk −3..−1/+1..+4/+5..+8), multiparious cows, week +1, two-trial comparison with Control Trial #2 (Table 23)) was 5.49 weight %, the “Fat Content of Produced Milk” value (Pre/Post Trial #1 (150/125/100 g/day in wk −3..−1/+1..+4/+5..+8), multiparious cows, week +2) was 4.41 weight % and the “Fat Content of Produced Milk” value (Pre/Post Trial #1 (150/125/100 g/day in wk −3..−1/+1..+4/+5..+8), multiparious cows, week +2, two-trial comparison with Control Trial #2 (Table 23)) was 4.41 weight %. For the same compound, the “Fat Content of Produced Milk” value (Pre/Post Trial #1 (150/125/100 g/day in wk −3..−1/+1..+4/+5..+8), multiparious cows, week +3) was 4.22 weight %, the “Fat Content of Produced Milk” value (Pre/Post Trial #1 (150/125/100 g/day in wk −3..−1/+1..+4/+5..+8), multiparious cows, week +3, two-trial comparison with Control Trial #2 (Table 23)) was 4.22 weight % and the “Fat Content of Produced Milk” value (Pre/Post Trial #1 (150/125/100 g/day in wk −3..−1/+1..+4/+5..+8), multiparious cows, week +4) was 4.01^b weight %. For the same compound, the “Fat Content of Produced Milk” value (Pre/Post Trial #1 (150/125/100 g/day in wk −3..−1/+1..+4/+5..+8), multiparious cows, week +4, two-trial comparison with Control Trial #2 (Table 23)) was 4.01 weight %, the “Fat Content of Produced Milk” value (Pre/Post Trial #1 (150/125/100 g/day in wk −3..−1/+1..+4/+5..+8), multiparious cows, week +5) was 3.71 weight % and the “Fat Content of Produced Milk” value (Pre/Post Trial #1 (150/125/100 g/day in wk −3..−1/+1..+4/+5..+8), multiparious cows, week +5, two-trial comparison with Control Trial #2 (Table 23)) was 3.71 weight %. The “Fat Content of Produced Milk” value (Pre/Post Trial #1 (150/125/100 g/day in wk −3..−1/+1..+4/+5..+8), multiparious cows, week +6) was 3.69^b weight %, the “Fat Content of Produced Milk” value (Pre/Post Trial #1 (150/125/100 g/day in wk −3..−1/+1..+4/+5..+8), multiparious cows, week +6, two-trial comparison with Control Trial #2 (Table 23)) was 3.69 weight % and the “Fat Content of Produced Milk” value (Pre/Post Trial #1 (150/125/100 g/day in wk −3..−1/+1..+4/+5..+8), multiparious cows, week +7) was 3.45 weight %. The “Fat Content of Produced Milk” value (Pre/Post Trial #1 (150/125/100 g/day in wk −3..−1/+1..+4/+5..+8), multiparious cows, week +7, two-trial comparison with Control Trial #2 (Table 23)) was 3.45 weight %, the “Fat Content of Produced Milk” value (Pre/Post Trial #1 (150/125/100 g/day in wk −3..−1/+1..+4/+5..+8), multiparious cows, week +8) was 3.68^b weight % and the “Fat Content of Produced Milk” value (Pre/Post Trial #1 (150/125/100 g/day in wk −3..−1/+1..+4/+5..+8), multiparious cows, week +8, two-trial comparison with Control Trial #2 (Table 23)) was 3.68 weight %. The “Fat Content of Produced Milk” value (Pre/Post Trial #1 (150/125/100 g/day in wk −3..−1/+1..+4/+5..+8), multiparious cows, weeks +1 through +4) was 4.53^ab weight %, the “Fat Content of Produced Milk” value (Pre/Post Trial #1 (150/125/100 g/day in wk −3..−1/+1..+4/+5..+8), multiparious cows, weeks +1 through +4, two-trial comparison with Control Trial #2 (Table 23)) was 4.53 weight % and the “Fat Content of Produced Milk” value (Pre/Post Trial #1 (150/125/100 g/day in wk −3..−1/+1..+4/+5..+8), multiparious cows, weeks +1 through +8) was 4.09^ab weight %. For the same compound, the “Fat Content of Produced Milk” value (Pre/Post Trial #1 (150/125/100 g/day in wk −3..−1/+1..+4/+5..+8), multiparious cows, weeks +1 through +8, two-trial comparison with Control Trial #2 (Table 23)) was 4.09 weight %, the “Fat Content of Produced Milk” value (Pre/Post Trial #1 (150/125/100 g/day in wk −3..−1/+1..+4/+5..+8), multiparious cows, weeks +5 through +8) was 3.63^b weight % and the “Fat Content of Produced Milk” value (Pre/Post Trial #1 (150/125/100 g/day in wk −3..−1/+1..+4/+5..+8), multiparious cows, weeks +5 through +8, two-trial comparison with Control Trial #2 (Table 23)) was 3.63 weight %. For the same compound, the “increase in fat concentration in milk” value (Pre/Post Trial #1 (150/125/100 g/day) versus Control Trial #2, multiparious cows, weeks +1 through +8 (Table 23)) was 7.3%, the “increase in fat concentration in milk” value (Pre/Post Trial #1 (150/125/100 g/day) versus Control Trial #2, multiparious cows, weeks +5 through +8 (Table 23)) was 13.8% and the “greater fat concentration in milk” value (Pre/Post Trial #1 (150/125/100 g/day) versus Pre/Post Trial #2 (75/75/100 g/day), multiparious cows, week +8) was 17.2%. The “Fat Content of Produced Milk” value (Pre/Post Trial #2 (75/75/100 g/day in wk −3..−1/+1..+4/+5..+8), multiparious cows, week +1) was 6.23^b weight %, the “Fat Content of Produced Milk” value (Pre/Post Trial #2 (75/75/100 g/day in wk −3..−1/+1..+4/+5..+8), multiparious cows, week +2) was 4.73 weight % and the “Fat Content of Produced Milk” value (Pre/Post Trial #2 (75/75/100 g/day in wk −3..−1/+1..+4/+5..+8), multiparious cows, week +3) was 4.21 weight %. The “Fat Content of Produced Milk” value (Pre/Post Trial #2 (75/75/100 g/day in wk −3..−1/+1..+4/+5..+8), multiparious cows, week +4) was 3.87^b weight %, the “Fat Content of Produced Milk” value (Pre/Post Trial #2 (75/75/100 g/day in wk −3..−1/+1..+4/+5..+8), multiparious cows, week +5) was 3.89 weight % and the “Fat Content of Produced Milk” value (Pre/Post Trial #2 (75/75/100 g/day in wk −3..−1/+1..+4/+5..+8), multiparious cows, week +6) was 3.48^ab weight %. For the same compound, the “Fat Content of Produced Milk” value (Pre/Post Trial #2 (75/75/100 g/day in wk −3..−1/+1..+4/+5..+8), multiparious cows, week +7) was 3.47 weight %, the “Fat Content of Produced Milk” value (Pre/Post Trial #2 (75/75/100 g/day in wk −3..−1/+1..+4/+5..+8), multiparious cows, week +8) was 3.14^a weight % and the “Fat Content of Produced Milk” value (Pre/Post Trial #2 (75/75/100 g/day in wk −3..−1/+1..+4/+5..+8), multiparious cows, weeks +1 through +4) was 4.79^b weight %. For the same compound, the “Fat Content of Produced Milk” value (Pre/Post Trial #2 (75/75/100 g/day in wk −3..−1/+1..+4/+5..+8), multiparious cows, weeks +1 through +8) was 4.13^b weight %, the “Fat Content of Produced Milk” value (Pre/Post Trial #2 (75/75/100 g/day in wk −3..−1/+1..+4/+5..+8), multiparious cows, weeks +5 through +8) was 3.43^ab weight % and the “greater fat concentration in milk” value (Pre/Post Trial #2 (75/75/100 g/day) versus Pre-Partum Trial #2 (75/0/100 g/day), multiparious cows, weeks +1 through +4) was 13.24%. For the same compound, the “greater fat concentration in milk” value (Pre/Post Trial #2 (75/75/100 g/day) versus Pre-Partum Trial #2 (75/0/100 g/day), multiparious cows, weeks +1 through +8) was 10.1%, the “increase in fat concentration in milk” value (average of means of Pre-Partum Trial #2, Pre/Post Trial #1 and Pre/Post Trial #2 versus Control Trial #2, multiparious cows, weeks +1 through +8) was 4.7% and the “increase in fat concentration in milk” value (average of means of Pre-Partum Trial #2, Pre/Post Trial #1 and Pre/Post Trial #2 versus Control Trial #2, multiparious cows, weeks +5 through +8) was 7.9%.
